Measurements from patent US20080051429A1, “USE OF 4-AMINO-PIPERIDINES FOR TREATING SLEEP DISORDERS” (priority 2006, published 2008).
pIC50: −log10 of the molar value. Counter-ions that a name gives are not always drawn. Like-named read-outs stand apart in the source and are kept apart here. Blank lines part the entries; values can stand above or below the compound they belong to.

Molecular target: T1, 5-HT2A receptor (Homo sapiens, UniProt P28223)
T1 construct: expressed in transfected cells; host or cells: NIH3T3 cells, pSI expression vector
Assay: R-SAT functional receptor assay
Assay type: cell-based
Conditions: for Emax: 120 h
Method: The functional receptor assay, Receptor Selection and Amplification Technology (R-SAT), was used (with minor modifications from that previously described U.S. Pat. No. 5,707,798) to screen compounds for efficacy at the 5-HT2A receptor. Briefly, NIH3T3 cells were grown in 96 well tissue culture plates to 70-80% confluence. Cells were transfected for 12-16 hours with plasmid DNAs using superfect (Qiagen Inc.) as per manufacture's protocols. R-SAT's were generally performed with 50 ng/well of receptor and 20 ng/well of Beta-galactosidase plasmid DNA. All receptor and G-protein constructs used were in the pSI mammalian expression vector (Promega Inc) as described in U.S. Pat. No. 5,707,798. The 5HT2A receptor gene was amplified by nested PCR from brain cDNA using the oligodeoxynucleotides based on the published sequence (see Saltzman et. al. Biochem. Biophys. Res. Comm. 181:1469-78 (1991)). Large-scale transfections, cells were transfected for 12-16 hours, then trypsinized and frozen in DMSO. Frozen cells were later thawed, plated at 10,000-40,000 cells per well of a 96 well plate that contained drug. With both methods, cells were then grown in a humidified atmosphere with 5% ambient CO2 for five days. Media was then removed from the plates and marker gene activity was measured by the addition of the beta-galactosidase substrate ONPG (in PBS with 5% NP-40). The resulting colorimetric reaction was measured in a spectrophotometric plate reader (Titertek Inc.)at […]. All data were analyzed using the computer program XLFit (IDBSm). Efficacy is the percent maximal repression compared to repression by a control compound (ritanserin in the case of 5HT2A). pIC50 is the negative of the log(IC50), where IC50 is the calculated concentration in Molar that produces 50% maximal repression.
Briefly, the 5-HT2A receptor, and the alpha subunit of the guanine nucleotide binding protein Gq were transiently transfected into NIH3T3 cells and assayed using the functional receptor assay, Receptor Selection and Amplification Technology (R-SAT) essentially as disclosed in U.S. Pat. No. 5,707,798. Each compound was screened at seven serially diluted concentrations in triplicate. Data were analyzed using least squares fit analysis with GraphPad Prism (San Diego, Calif.), and are reported normalized to percent response.
R-SAT assays (as described in Example 42) were carried out with cells transfected with receptors (listed below) to determine the receptor selectivity profile for compound 26HCH16D. 5HT2A inverse agonist data (IC50 nM; % efficacy) were derived from detailed dose response curves (7 points in triplicate).
(§1) The functional receptor assay, Receptor Selection and Amplification Technology (R-SAT), was used (with minor modifications from that previously described U.S. Pat. No. 5,707,798) to screen compounds for efficacy at the 5-HT2A receptor. The RSAT assay was conducted as described herein.
as §1, with “5,707,798, which is incorporated herein by reference in its entirety)” for “5,707,798)”

[1] = compared to ritanserin, read-out: 5HT2A % inhibition
[2] = Table 6, read-out: 5HT2A pIC50 (converted)
[3] = Table 5, read-out: 5HT2A pIC50 (converted)
[4] = Table 3, read-out: pIC50 (converted)
[5] = read-out: Percent Efficacy, compared to ritanserin

T1 sequence (P28223 whole entry): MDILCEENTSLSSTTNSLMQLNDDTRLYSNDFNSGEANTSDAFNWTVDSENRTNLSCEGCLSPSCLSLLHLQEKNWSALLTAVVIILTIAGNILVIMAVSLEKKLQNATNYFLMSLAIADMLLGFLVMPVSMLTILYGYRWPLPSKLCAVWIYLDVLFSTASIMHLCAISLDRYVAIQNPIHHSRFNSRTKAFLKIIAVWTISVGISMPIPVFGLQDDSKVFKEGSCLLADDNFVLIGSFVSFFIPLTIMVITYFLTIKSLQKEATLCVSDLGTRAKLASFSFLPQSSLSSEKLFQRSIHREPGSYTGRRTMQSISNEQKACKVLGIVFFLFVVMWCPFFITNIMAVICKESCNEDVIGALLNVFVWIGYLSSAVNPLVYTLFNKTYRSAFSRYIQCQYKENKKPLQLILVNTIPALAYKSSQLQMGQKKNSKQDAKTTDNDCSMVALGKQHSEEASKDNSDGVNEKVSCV

SMILES: CC(C)COc1ccc(CN2C(=O)OC3(CCN(CCCN4CCOCC4)CC3)C2Cc2ccc(F)cc2)cc1 (stereo not drawn) [Example 69NLS83, 4-(4-Fluorobenzyl)-3-(4-isobutoxybenzyl)-8-(3-morpholin-4-yl-propyl)-1-oxa-3,8-diaza-spiro[4.5]decan-2-one, dihydrochloride]
- Emax [1]: 85%
- IC50 [2]: 10 nM

SMILES: COc1ccc(CC(=O)N(Cc2ccc(C)cc2)C2CC3CCC(C2)N3C)cc1 (stereo not drawn) [Example 47AKU-21, 2-(4-Methoxyphenyl)-N-(4-methylbenzyl)-N-(8-methyl-8-aza-bicyclo[3.2.1]oct-3-yl)-acetamide]
- Emax (read-out: Percent Efficacy): 117%
- pIC50 (pIC50, Table 3): 7.90

SMILES: CC(C)COc1ccc(CN2C(=O)OC3(CCN(C(C)C)CC3)C2Cc2ccc(F)cc2)cc1 (stereo not drawn) [Example 69NLS85, 4-(4-Fluorobenzyl)-3-(4-isobutoxybenzyl)-8-isopropyl-1-oxa-3,8-diaza-spiro[4.5]decan-2-one, hydrochloride]
- Emax [1]: 95%
- IC50 [2]: 0.794 nM

SMILES: CC(C)COc1ccc(CC(=O)N(Cc2ccc(F)cc2)C2CCN(CCCN3CC(C)CC(C)C3)CC2)cc1 (stereo not drawn) [Example 103NLS45-B, N-{1-[3-(3,5-Dimethylpiperidin-1-yl)propyl]piperidin-4-yl}-N-(4-fluorobenzyl)-2-(4-isobutoxyphenyl)acetamide, dihydrochloride]
- Emax (read-out: 5HT2A % INH): 84%
- IC50 [3]: 25.1 nM

SMILES: COc1ccc(CC(=O)N(Cc2ccc(C)cc2)C2CCN(C)CC2)cc1C [Example 57MBT70-8D, N-((4-methylphenyl)methyl)-N-(1-methylpiperidin-4-yl)-2-(4-methoxy-3-methylphenyl)acetamide hydrochloride]
- Emax (read-out: Percent Efficacy): 119%
- IC50 [4]: 20 nM

SMILES: CC(C)COc1ccc(CC(=O)N(Cc2ccc(F)cc2)C2CCN(CCCN3CCCC3=O)CC2)cc1 [Example 098AF76-65, N-(4-Fluorobenzyl)-2-(4-isobutoxyphenyl)-N-{1-[3-(2-oxo-pyrrolidin-1-yl)propyl]piperidin-4-yl}acetamide, hydrochloride]
- Emax (read-out: 5HT2A % INH, compared to ritanserin): 100%
- IC50 [3]: 0.794 nM

SMILES: COc1ccc(CC(=O)N(Cc2ccc(C)cc2)C2CCN(Cc3ccccc3)C2)cc1 (stereo not drawn) [Example 26HCH52, N-((4-Methylphenyl)methyl)-N-(1-(phenylmethyl)pyrrolidin-3-yl)-4-methoxyphenylacetamide]
- pIC50 (pIC50 (average), inverse agonist): 7.31
- Efficacy (average) (percent maximal repression compared to ritanserin): 98

SMILES: Cc1ccc(CN(C(=O)Cc2ccc(Br)cc2)C2CCN(C)CC2)cc1 [Example 57MBT70-1D, N-((4-methylphenyl)methyl)-N-(1-methylpiperidin-4-yl)-2-(4-bromophenyl)acetamide hydrochloride]
- Emax (read-out: Percent Efficacy): 120%
- IC50 [4]: 12.6 nM

SMILES: Cc1ccc(CN(C(=O)Cc2ccc(I)cc2)C2CCN(C)CC2)cc1 [Example 57MBT70-2D, N-((4-methylphenyl)methyl)-N-(1-methylpiperidin-4-yl)-2-(4-iodophenyl)acetamide hydrochloride]
- Emax (read-out: Percent Efficacy): 105%
- IC50 [4]: 6.31 nM

SMILES: CC(C)COc1ccc(CN2C(=O)OC3(CCN(CCN4CCNC4=O)CC3)C2Cc2ccc(F)cc2)cc1 (stereo not drawn) [Example 38-PH17-HCl, 4-(4-Fluorobenzyl)-3-(4-isobutoxybenzyl)-8-[2-(2-oxo-imidazolidin-1-yl)-ethyl]-1-oxa-3,8-diaza-spiro[4.5]decan-2-one, hydrochloride]
- Emax [1]: 84%
- IC50 [2]: 1.58 nM

SMILES: CC(C)COc1ccc(CC(=O)N(Cc2ccc(F)cc2)C2CCN(CCC3OC(C)CC(C)O3)CC2)cc1 (stereo not drawn) [Example 118AF37-88, N-{1-[2-(4,6-Dimethyl-1,3-dioxan-2-yl)ethyl]piperidin-4-yl}-N-(4-fluorobenzyl)-2-(4-isobutoxyphenyl)acetamide, oxalate]
- Emax (read-out: 5HT2A % INH): 105%
- IC50 [3]: 0.631 nM

SMILES: COc1ccc(CC(=O)N(Cc2ccc(C)cc2)C2CCN(CCCn3c(=O)[nH]c4ccccc43)CC2)cc1 [Example 50ELH89, 2-(4-Methoxyphenyl)-N-(4-methylbenzyl)-N-(1-(3-(1,3-dihydro-2H-benzimidazol-2-one-1-yl)propyl)piperidine-4-yl)acetamide]
- Emax (read-out: Percent Efficacy): 111%
- pIC50 (pIC50, Table 3): 9.70

- Emax [5]: 119%
- IC50 [4]: 10 nM
SMILES: COc1ccc(CCN(C(=O)Cc2ccc(OC)cc2)C2CCN(C)CC2)cc1 [Example 50ELH95B, 2-(4-Methoxyphenyl)-N-[2-(4-methoxyphenyl)ethyl]-N-(1-methylpiperidin-4-yl)acetamide]

- Emax [5]: 122%
- IC50 [4]: 3.16 nM
SMILES: CCN1CCC(N(Cc2ccc(C)cc2)C(=O)Cc2ccc(OC)cc2)CC1 [Example 42ELH80, 2-(4-Methoxyphenyl)-N-(4-methylbenzyl)-N-(1-ethylpiperidin-4-yl)acetamide]

- Emax [5]: 72%
- IC50 [4]: 7.94 nM
SMILES: COc1ccc(CC(=O)N(CCc2cccc(Cl)c2)C2CCN(C)CC2)cc1 [Example 50ELH93E, 2-(4-Methoxyphenyl)-N-[2-(3-chlorophenyl)ethyl]-N-(1-methylpiperidin-4-yl)acetamide]

SMILES: CC(C)COc1ccc(CC(=O)N(Cc2ccc(F)cc2)C2CCN(CCCN3CC(C)OC(C)C3)CC2)cc1 (stereo not drawn) [Example 103NLS69-A, N-{1-[3-(2,6-Dimethylmorpholin-4-yl)propyl]piperidin-4-yl}-N-(4-fluorobenzyl)-2-(4-isobutoxyphenyl)acetamide, dioxalate]
- Emax (read-out: 5HT2A % INH): 96%
- IC50 [3]: 2 nM

SMILES: Cc1ccc(CN(C(=O)Cc2ccc(OC(F)(F)F)cc2)C2CCN(C)CC2)cc1 [Example 57MBT70-4D, N-((4-methylphenyl)methyl)-N-(1-methylpiperidin-4-yl)-2-(4-trifluoromethoxyphenyl)acetamide hydrochloride]
- Emax (read-out: Percent Efficacy): 98%
- IC50 [4]: 3.16 nM

- Emax [5]: 92%
- IC50 [4]: 12.6 nM
SMILES: COc1ccc(CC(=O)N(CCCc2ccccc2)C2CCN(C)CC2)cc1 [Example 50ELH65, 2-(4-Methoxyphenyl)-N-(3-phenyl-1-propyl)-N-(1-methylpiperidin-4-yl)acetamide]

- Emax [5]: 95%
- IC50 [4]: 12.6 nM
SMILES: COc1ccc(CC(=O)N(Cc2ccc(C)c(O)c2)C2CCN(C)CC2)cc1 [Example 57MBT54B, N-((3-hydroxy-4-methylphenyl)methyl)-N-(1-methylpiperidin-4-yl)-2-(4-methoxyphenyl)acetamide]

SMILES: CC(C)COc1ccc(CN2C(=O)OC3(CCN(C)CC3)[C@@H]2Cc2ccc(F)cc2)cc1 (single isomer, unassigned) [Example 78NLS59, 4-(4-fluorobenzyl)-3-(4-isobutoxybenzyl)-8-methyl-1-oxa-3,8-diaza-spiro[4.5]decan-2-one, hydrochloride]
- Emax (read-out: 5HT2A % inhibition, compared to ritanserin): 98%
- enantiomer activity at the 5-HT2A receptor (in words): eutomer

SMILES: CCCCOc1ccc(CC(=O)N(Cc2ccc(C)cc2)C2CCN(C)CC2)cc1 [Example 58AKU-5, 2-(4-Butoxyphenyl)-N-(4-methylbenzyl)-N-(1-methylpiperidin-4-yl)acetamide]
- Emax [5]: 99%
- IC50 [4]: 0.316 nM

- Emax [5]: 113%
- IC50 [4]: 7.94 nM
SMILES: Cc1ccc(CN(C(=O)Cc2ccc(Cl)cc2)C2CCN(C)CC2)cc1 [Example 47AKU-8, 2-(4-Chlorophenyl)-N-(4-methylbenzyl)-N-(1-methylpiperidin-4-yl)-acetamide]

- Emax [5]: 106%
- IC50 [4]: 2 nM
SMILES: COc1ccc(CC(=O)N(CCc2ccc(F)cc2)C2CCN(C)CC2)cc1 [Example 50ELH93A, 2-(4-Methoxyphenyl)-N-(2-4-(fluorophenyl)ethyl)-N-(1-methylpiperidin-4-yl)acetamide]

- Emax [5]: 100%
- IC50 [4]: 3.16 nM
SMILES: CCOc1ccc(CC(=O)N(Cc2ccc(F)cc2)C2CCN(C)CC2)cc1 [Example 63ELH21, 2-(4-Ethoxyphenyl)-N-(4-fluorobenzyl)-N-(1-methylpiperidin-4-yl)acetamide]
